Assay results published in ChEMBL document CHEMBL1201862, “PubChem BioAssay data set” (2004).
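Test compounds were applied to cells in 96-well plates for 48 hours at 5 doses. GI50 is the concentration that inhibits growth by half.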 Calls of active or inactive are those of the source. Rule as the data show it: active = GI50 up to about 1.1 µM and inactive = higher.

Key:
Assay in all cases: NCI-60 cell line screen, 48 h
COLO 205 = tested on: COLO 205
A549 = tested on: A549
SR = tested on: SR
UACC-257 = tested on: UACC-257
SNB-75 = tested on: SNB-75
U-251 = tested on: U-251
OVCAR-5 = tested on: OVCAR-5
Malme-3M = tested on: Malme-3M
HCT-15 = tested on: HCT-15
HT-29 = tested on: HT-29
A498 = tested on: A498
LOX IMVI = tested on: LOX IMVI
HCC 2998 = tested on: HCC 2998
SF-268 = tested on: SF-268
RXF 393 = tested on: RXF 393
TK-10 = tested on: TK-10
OVCAR-3 = tested on: OVCAR-3
T47D = tested on: T47D
NCI/ADR-RES = tested on: NCI/ADR-RES
Hs-578T = tested on: Hs-578T

| SMILES | GI50 (COLO 205) | GI50 (A549) | GI50 (SR) | GI50 (UACC-257) | GI50 (SNB-75) | GI50 (U-251) | GI50 (OVCAR-5) | GI50 (Malme-3M) | GI50 (HCT-15) [µM] | GI50 (HT-29) | GI50 (A498) | GI50 (LOX IMVI) | GI50 (HCC 2998) | GI50 (SF-268) | GI50 (RXF 393) | GI50 (TK-10) | GI50 (OVCAR-3) | GI50 (T47D) | GI50 (NCI/ADR-RES) | GI50 (Hs-578T) |
| --- | --- | --- | --- | --- | --- | --- | --- | --- | --- | --- | --- | --- | --- | --- | --- | --- | --- | --- | --- | --- |
| C=C(C)C1CC2C(C)=C(OC(C)=O)C1n1c(=O)c3cc4ccccc4cc3c(=O)n12 (stereo not drawn) | > 100 µM (inactive) | > 72.3 µM (inactive) | 36 µM (inactive) | > 100 µM (inactive) | 42 µM (inactive) | 63.1 µM (inactive) | > 100 µM (inactive) | > 89.3 µM (inactive) | 57.5 | > 80.9 µM (inactive) | > 84.5 µM (inactive) | > 84.3 µM (inactive) | 70.8 µM (inactive) | 81.3 µM (inactive) | 24.2 µM (inactive) | > 100 µM (inactive) | 46.9 µM (inactive) |  |  |  |
| C(=N\N=C1NCCCCN1)/c1ccc2ccccc2c1 | 15.9 µM (inactive) | 50.2 µM (inactive) |  | 21.9 µM (inactive) | 13 µM (inactive) | 21.3 µM (inactive) | 25.2 µM (inactive) | 16.3 µM (inactive) | 28.1 | 22.8 µM (inactive) |  | 15.7 µM (inactive) | 15.3 µM (inactive) | 45.3 µM (inactive) | 22.8 µM (inactive) | 37.9 µM (inactive) | 46.8 µM (inactive) | 18.4 µM (inactive) | 98.2 µM (inactive) | 92.9 µM (inactive) |
| COc1cc2c(cc1C)NC(=O)/C2=C/c1cccnc1 | 15.6 µM (inactive) |  |  |  | 45 µM (inactive) | 9.55 µM (inactive) | 13.6 µM (inactive) | 16.4 µM (inactive) | 11 | 17.7 µM (inactive) | 10.8 µM (inactive) |  | 2.34 µM (inactive) | 15.6 µM (inactive) | 7.8 µM (inactive) | 11.9 µM (inactive) | 12.3 µM (inactive) | 2.84 µM (inactive) | 12.1 µM (inactive) | 27.4 µM (inactive) |
| NNC(=O)C1(NC(=O)c2ccccc2)C(c2ccccc2)C(c2ccccc2)=NN1c1ccccc1 (stereo not drawn) | 45.5 µM (inactive) | 43.5 µM (inactive) | 18.2 µM (inactive) | 43.3 µM (inactive) | 30.2 µM (inactive) | 62.1 µM (inactive) | 33 µM (inactive) | > 100 µM (inactive) | 18.5 |  | > 100 µM (inactive) | 23.8 µM (inactive) | 57.1 µM (inactive) | 66.7 µM (inactive) | 14.5 µM (inactive) | 58.2 µM (inactive) | 18.1 µM (inactive) | 23.1 µM (inactive) | 32.1 µM (inactive) |  |
| c1ccc2c(c1)ccc1nc(-c3ccc4c(c3)OCO4)c3c(c12)CCCC3 | 20.3 µM (inactive) | 20.6 µM (inactive) |  | 30.1 µM (inactive) | 31.1 µM (inactive) | 7.6 µM (inactive) | 93.5 µM (inactive) | 20.8 µM (inactive) | 6.07 | 9.48 µM (inactive) | 14.6 µM (inactive) |  | 31.7 µM (inactive) | 12.2 µM (inactive) |  |  | 15.4 µM (inactive) | 11.3 µM (inactive) | 17.7 µM (inactive) | 2.39 µM (inactive) |
| Fc1ccc(C2NC(=S)NC3=C2CCOc2c3ccc3ccccc23)cc1 (stereo not drawn) | 6.67 µM (inactive) | 31.3 µM (inactive) |  | 53.8 µM (inactive) | 13.6 µM (inactive) |  | 94.6 µM (inactive) | 17.4 µM (inactive) | 18.7 |  | 18.9 µM (inactive) |  | 22.6 µM (inactive) | 45.1 µM (inactive) | 14.8 µM (inactive) | 44.9 µM (inactive) | 44.1 µM (inactive) | 2.7 µM (inactive) | 18.9 µM (inactive) | 42.1 µM (inactive) |
| CCOc1ccc(/C=C2\N=C(c3ccc([N+](=O)[O-])cc3)OC2=O)cc1 | > 100 µM (inactive) | > 100 µM (inactive) | > 100 µM (inactive) | > 100 µM (inactive) | > 100 µM (inactive) | > 100 µM (inactive) | > 100 µM (inactive) | > 100 µM (inactive) | > 100 | > 100 µM (inactive) | > 100 µM (inactive) | > 100 µM (inactive) | > 100 µM (inactive) | > 100 µM (inactive) | > 100 µM (inactive) | > 100 µM (inactive) | > 100 µM (inactive) | > 100 µM (inactive) |  | > 100 µM (inactive) |
| CNC(=O)CCC(NC(C)=O)C(=O)NC(Cc1ccc(NC(=O)CCCCC(C)=O)cc1)C(=O)NC(CCC(=O)NC)C(=O)NC (stereo not drawn) | > 100 µM (inactive) | > 100 µM (inactive) |  |  |  | > 100 µM (inactive) | > 100 µM (inactive) | > 100 µM (inactive) | > 100 | > 100 µM (inactive) | > 100 µM (inactive) | > 100 µM (inactive) | > 100 µM (inactive) | > 100 µM (inactive) | > 100 µM (inactive) | > 100 µM (inactive) | > 100 µM (inactive) | > 100 µM (inactive) | > 100 µM (inactive) | 40.2 µM (inactive) |
| C/C(=C(/C)c1ccc(O)cc1)c1ccc(O)cc1 [DIMETHYLSTILBESTROL] | > 100 µM (inactive) | 71.3 µM (inactive) | 40.1 µM (inactive) | 43.4 µM (inactive) | 39.2 µM (inactive) | 67.3 µM (inactive) | > 100 µM (inactive) | 60.8 µM (inactive) | 61.1 | 48.8 µM (inactive) | 54.6 µM (inactive) |  | > 100 µM (inactive) | > 100 µM (inactive) | 56.8 µM (inactive) | 89.5 µM (inactive) | 46.6 µM (inactive) |  | 45.5 µM (inactive) | 24.5 µM (inactive) |
| CCCCCCCCCC1CC(=O)Oc2cccc(O)c21 (stereo not drawn) | 16.4 µM (inactive) | 11.5 µM (inactive) | 23.2 µM (inactive) | 41.3 µM (inactive) | 40 µM (inactive) | 2.72 µM (inactive) | 28.3 µM (inactive) | 18.7 µM (inactive) | 23.4 | 24.1 µM (inactive) | 22.1 µM (inactive) | 14 µM (inactive) | 1.23 µM (inactive) | 30.3 µM (inactive) | 23.8 µM (inactive) | 36.2 µM (inactive) | 16.3 µM (inactive) |  |  |  |
| Cc1n[nH]c(=O)n1/N=C/c1ccc(Cl)cc1 | 43.3 µM (inactive) | 61.2 µM (inactive) | 34.4 µM (inactive) | 81.8 µM (inactive) | 41.2 µM (inactive) |  | > 100 µM (inactive) |  | > 100 |  | 40 µM (inactive) |  | > 100 µM (inactive) | 44.9 µM (inactive) | 22.3 µM (inactive) |  | 27.9 µM (inactive) | 35.6 µM (inactive) | 49.3 µM (inactive) |  |
| O=C(O)c1nc2ccc(C(F)(F)F)cc2nc1NCc1ccc(Cl)c(Cl)c1 | 20.1 µM (inactive) | 16.1 µM (inactive) | 15.6 µM (inactive) | 21.2 µM (inactive) | 20.7 µM (inactive) | 13.8 µM (inactive) | 13.5 µM (inactive) |  | 18 | 15.2 µM (inactive) | 17.5 µM (inactive) | 15.1 µM (inactive) | 16.4 µM (inactive) |  |  |  | 7.78 µM (inactive) | 16.6 µM (inactive) | 22.2 µM (inactive) |  |
| O=C(O)c1nc2ccc(C(F)(F)F)cc2nc1Nc1ccc(Cl)c(Cl)c1 | 11.6 µM (inactive) |  | 4.15 µM (inactive) | 29.2 µM (inactive) | 13.2 µM (inactive) | 3.93 µM (inactive) | 14.4 µM (inactive) | 13.3 µM (inactive) | 8.97 | 9.16 µM (inactive) | 13.6 µM (inactive) | 9.82 µM (inactive) | 4.99 µM (inactive) | 4.46 µM (inactive) | 13.4 µM (inactive) | 20 µM (inactive) | 6.37 µM (inactive) |  | 5.96 µM (inactive) | 18.4 µM (inactive) |
| COc1ccc(/C=C2\CCC(C)C3=C(c4ccc(OC)c(OC)c4)C(C#N)=C(N)OC32)cc1OC (stereo not drawn) | 2.76 µM (inactive) |  |  | 4.18 µM (inactive) | 2.33 µM (inactive) | 3.58 µM (inactive) | 2.75 µM (inactive) | 2.48 µM (inactive) | 3.33 | 2.75 µM (inactive) | 3.76 µM (inactive) | 3.16 µM (inactive) |  | 9.77 µM (inactive) | 1.65 µM (inactive) | 4.04 µM (inactive) | 3.58 µM (inactive) | 2.17 µM (inactive) | 2.65 µM (inactive) | 4.42 µM (inactive) |
| COc1ccccc1Cn1[nH]c(=O)c2cc([N+](=O)[O-])ccc21 | > 100 µM (inactive) | 93.1 µM (inactive) | > 100 µM (inactive) | > 100 µM (inactive) | 25.8 µM (inactive) |  | > 100 µM (inactive) | > 100 µM (inactive) | > 100 | > 100 µM (inactive) | 26.5 µM (inactive) | > 100 µM (inactive) | 65.9 µM (inactive) | 48.5 µM (inactive) | 25.8 µM (inactive) | > 100 µM (inactive) | 27.9 µM (inactive) |  | 75.5 µM (inactive) | 23.7 µM (inactive) |
| CCOP(=O)(OCC)C(Nc1ccc(F)cc1)c1cccc([N+](=O)[O-])c1 (stereo not drawn) | 70.5 µM (inactive) | 58.7 µM (inactive) | 93.5 µM (inactive) | > 100 µM (inactive) | > 100 µM (inactive) | > 100 µM (inactive) | > 100 µM (inactive) | 83.8 µM (inactive) | 83.8 | 74.6 µM (inactive) | > 100 µM (inactive) | > 100 µM (inactive) | 71.6 µM (inactive) | > 100 µM (inactive) | 54.3 µM (inactive) | > 100 µM (inactive) | > 100 µM (inactive) |  | 47.1 µM (inactive) | 82.8 µM (inactive) |
